Data from patent publication US8415486B2, “IAP inhibitors” (TetraLogic Pharmaceuticals Corp., priority 2009, dated 2013).

Legend:
[1] = tested on: ovarian cancer cell line, SK-OV-3; assay: SK-OV-3 cell growth inhibition (MTT, 72 hrs); assay type: cell-based; conditions: Homo sapiens, concentration giving 50% cell survival, reported as ranges
In short: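 After overnight seeding in McCoy's medium with 10% FBS, SK-OV-3 cells were exposed to compound at 0.003-10 μM for 72 hrs at 37° C. MTT was then added for 3 h, with DMSO solubilization and OD read at 535 nm. CC50 is the concentration giving 50% survival relative to untreated control, reported as ranges.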

cIAP-1 BIR-3 = molecular target: T1, cIAP-1 BIR-3 (Homo sapiens, UniProt Q13490); assay: Fluorescence polarization binding to cIAP-1 BIR-3 with labeled peptide AbuRPF-K(5-Fam)-NH2; conditions: 40 nM BIR3, 5 nM labeled peptide, reported as ranges, read-out: KD (c-IAP-1 BIR3)
T1 construct: 40 nM of the respective IAP BIR3
In short: (§1)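 Competitive FP: compounds titrated against 5 nM AbuRPF-K(5-Fam)-NH2 tracer and 40 nM BIR3 protein, 15 min at RT in 0.1 M potassium phosphate pH 7.5 with bovine γ-globulin. Polarization read at 485/520 nm; KD reported in ranges A <0.1, B 0.1–1, C >1–10, D >10 μM.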

XIAP BIR-3 = molecular target: T2, XIAP BIR-3 (Homo sapiens, UniProt P98170); assay: Fluorescence polarization binding to XIAP BIR-3 with labeled peptide AbuRPF-K(5-Fam)-NH2; conditions: 40 nM BIR3, 5 nM labeled peptide, reported as ranges
T2 construct: 40 nM of the respective IAP BIR3
In short: as §1

T1 sequence (Q13490 253-363 limits assumed): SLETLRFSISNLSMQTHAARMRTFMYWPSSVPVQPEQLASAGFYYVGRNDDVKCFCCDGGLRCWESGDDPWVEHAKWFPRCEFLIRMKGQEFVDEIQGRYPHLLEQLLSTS
T2 sequence (P98170 241-356 limits assumed): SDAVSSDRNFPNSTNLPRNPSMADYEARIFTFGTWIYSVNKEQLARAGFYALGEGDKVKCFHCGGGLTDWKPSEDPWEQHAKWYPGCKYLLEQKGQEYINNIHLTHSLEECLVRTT

SMILES | Kd (cIAP-1 BIR-3) [nM] | Kd (XIAP BIR-3) [nM] | CC50 [1] [nM]
CN[C@@H](C)C(=O)N[C@H](C(=O)N1CC[C@@H]2[C@H]1[C@@H](COc1ccc(F)c(F)c1)CN2c1ncccn1)C(C)(C)C [Example 72, N-{1-[6-(3,4-Difluoro-phenoxymethyl)-4-pyrimidin-2-yl-hexahydro-pyrrolo[3,2-b]pyrrole-1-carbonyl]-2,2-dimethylpropyl}-2-methylamino-propionamide] | < 100 | 100 to 1000 | < 100
CN[C@@H](C)C(=O)N[C@H](C(=O)N1CC[C@@H]2[C@H]1[C@@H](OC(=O)NC1CCCCC1)CN2C(=O)NC(C)C)C(C)(C)C [Example 57, Cyclohexyl-carbamic acid 4-[3,3-dimethyl-2-(2-methylamino-propionylamino)-butyryl]-1-isopropylcarbamoyl-octahydro-pyrrolo[3,2-b]pyrrol-3-yl ester] | < 100 | 100 to 1000 | < 100
CN[C@@H](C)C(=O)N[C@H](C(=O)N1CC[C@H]2NC[C@H](Oc3ccc4c(c3)CCCC4)[C@H]21)C1CCCCC1 [Example 6, N-{1-Cyclohexyl-2-oxo-2-[6-(5,6,7,8-tetrahydro-naphthalen-2-yloxy)-hexahydro-pyrrolo[3,2-b]pyrrol-1-yl]-ethyl}-2-methylamino-propionamide] | < 100 | < 100 | < 100
CN[C@@H](C)C(=O)N[C@H](C(=O)N1CC[C@@H]2[C@H]1[C@@H](OC(=O)N1CCOCC1)CN2C(=O)NC(C)C)C(C)(C)C [Example 60, Morpholine-4-carboxylic acid 4-[3,3-dimethyl-2-(2-methylamino-propionylamino)-butyryl]-1-isopropylcarbamoyl-octahydro-pyrrolo[3,2-b]pyrrol-3-yl ester] | < 100 | 1000 to 10000 | 1000 to 10000
CN[C@@H](C)C(=O)N[C@H](C(=O)N1CC[C@@H]2[C@H]1[C@@H](OC(=O)NC1CCCC1)CN2C(=O)NC(C)C)C(C)(C)C [Example 56, Cyclopentyl-carbamic acid 4-[3,3-dimethyl-2-(2-methylamino-propionylamino)-butyryl]-1-isopropylcarbamoyl-octahydro-pyrrolo[3,2-b]pyrrol-3-yl ester] | < 100 | 100 to 1000 | 100 to 1000
CN[C@@H](C)C(=O)N[C@H](C(=O)N1CC[C@@H]2[C@H]1[C@@H](OC(=O)N1CCCCC1)CN2C(=O)NC(C)C)C(C)(C)C [Example 59, Piperidine-1-carboxylic acid 4-[3,3-dimethyl-2-(2-methylamino-propionylamino)-butyryl]-1-isopropylcarbamoyl-octahydro-pyrrolo[3,2-b]pyrrol-3-yl ester] | < 100 | 1000 to 10000 | 1000 to 10000
CN[C@@H](C)C(=O)N[C@H](C(=O)N1CC[C@@H]2[C@H]1[C@@H](Oc1ccc(F)c(F)c1)CN2S(C)(=O)=O)C(C)C [Example 12, N-{1-[6-(3,4-Difluoro-phenoxy)-4-methanesulfonyl-hexahydro-pyrrolo[3,2-b]pyrrole-1-carbonyl]-2-methyl-propyl}-2-methylamino-propionamide] | < 100 | < 100 | < 100
CN[C@@H](C)C(=O)N[C@H](C(=O)N1CC[C@H]2NC[C@H](Oc3cccc4ccccc34)[C@H]21)C1CCCCC1 [Example 8, N-{1-Cyclohexyl-2-[6-(naphthalen-1-yloxy)-hexahydro-pyrrolo[3,2-b]pyrrol-1-yl]-2-oxo-ethyl}-2-methylamino-propionamide] | < 100 | < 100 | 100 to 1000

Continued, in another order:

Kd (cIAP-1 BIR-3) [nM] | Kd (XIAP BIR-3) [nM] | SMILES | CC50 [1] [nM]
< 100 | < 100 | CN[C@@H](C)C(=O)N[C@H](C(=O)N1CC[C@@H]2[C@H]1[C@@H](COc1ccc(F)c(F)c1)CN2C(=O)OC)C(C)(C)C [Example 70, 3-(3,4-Difluoro-phenoxymethyl)-4-[3.3-dimethyl-2-(2-methylaminopropionylamino)-butyryl]-hexahydro-pyrrolo[3,2-b]pyrrole-1-carboxylic acid methyl ester] | < 100
< 100 | 100 to 1000 | CCCCNC(=O)O[C@H]1CN(C(=O)NC(C)C)[C@@H]2CCN(C(=O)[C@@H](NC(=O)[C@H](C)NC)C(C)(C)C)[C@H]12 [Example 53, Butyl-carbamic acid 4-[3,3-dimethyl-2-(2-methylamino-propionylamino)-butyryl]-1-isopropylcarbamoyl-octahydro-pyrrolo[3,2-b]pyrrol-3-yl ester] | 100 to 1000
< 100 | < 100 | CNC(=O)N1C[C@H](Oc2ccc(F)cc2)[C@@H]2[C@H]1CCN2C(=O)[C@@H](NC(=O)[C@H](C)NC)C(C)(C)C [Example 27, 4-[3,3-Dimethyl-2-(2-methylamino-propionylamino)-butyryl]-3-(4-fluoro-phenoxy)-hexahydro-pyrrolo[3,2-b]pyrrole-1-carboxylic acid methylamide] | < 100
< 100 | < 100 | CCN1C[C@H](Oc2ccc(F)c(F)c2)[C@@H]2[C@H]1CCN2C(=O)[C@@H](NC(=O)[C@H](C)NC)C(C)(C)C [Example 16, N-{1-[6-(3,4-Difluoro-phenoxy)-4-ethyl-hexahydro-pyrrolo[3,2-b]pyrrole-1-carbonyl]-2,2-dimethyl-propyl}-2-methylamino-propionamide] | 100 to 1000
< 100 | < 100 | CN[C@@H](C)C(=O)N[C@H](C(=O)N1CC[C@@H]2[C@H]1[C@@H](Oc1ccc(F)cc1)CN2S(C)(=O)=O)C(C)C [Example 9, N-{1-[6-(4-Fluoro-phenoxy)-4-methanesulfonyl-hexahydro-pyrrolo[3,2-b]pyrrole-1-carbonyl]-2-methyl-propyl}-2-methylamino-propionamide] | < 100
< 100 | 100 to 1000 | CN[C@@H](C)C(=O)N[C@H](C(=O)N1CC[C@@H]2[C@H]1[C@@H](OCc1ccc(F)cc1)CN2C1CCCC1)C(C)(C)C [Example 44, (S)—N—((S)-1-((3aR,6S,6aS)-4-cyclopentyl-6-(4-fluorobenzyloxy)hexahydropyrrolo[3,2-b]pyrrol-1(2H)-yl)-3,3-dimethyl-1-oxobutan-2-yl)-2-(methylamino) propanamide] | < 100
< 100 | < 100 | CN[C@@H](C)C(=O)N[C@H](C(=O)N1CC[C@@H]2[C@H]1[C@@H](OCc1ccc(F)cc1)CN2C(=O)C(C)=O)C(C)(C)C [Example 42, N-{1-[6-(4-Fluoro-benzyloxy)-4-(2-oxo-propionyl)-hexahydro-pyrrolo[3,2-b]pyrrole-1-carbonyl]-2,2-dimethyl-propyl}-2-methylamino-propionamide] | < 100
< 100 | < 100 | CN[C@@H](C)C(=O)N[C@H](C(=O)N1CC[C@@H]2[C@H]1[C@@H](OCc1ccc(F)cc1)CN2C(=O)N(C)C)C(C)(C)C [Example 41, (3S,3aS,6aR)-4-((S)-3,3-dimethyl-2((S)-2-(methylamino)propanamido)butanoyl)-3-(4-fluorobenzyloxy)-N,N-dimethylhexahydropyrrolo[3,2-b]pyrrole-1(2H)-carboxamide] | < 100
< 100 | < 100 | CN[C@@H](C)C(=O)N[C@H](C(=O)N1CC[C@@H]2[C@H]1[C@@H](COc1ccc(F)c(F)c1)CN2C(=O)N(C)C)C(C)(C)C [Example 68, 3-(3,4-Difluoro-phenoxymethyl)-4-[3.3-dimethyl-2-(2-methylaminopropionylamino)-butyryl]-hexahydro-pyrrolo[3,2-b]pyrrole-1-carboxylic acid dimethylamide] | < 100
< 100 | < 100 | CN[C@@H](C)C(=O)N[C@H](C(=O)N1CC[C@@H]2[C@H]1[C@@H](OCc1ccc(F)cc1)CN2C(C)=O)C(C)(C)C [Example 40, N-{1-[4-Acetyl-6-(4-fluoro-benzyloxy)-hexahydro-pyrrolo[3,2-b]pyrrole-1-carbonyl]-2,2-dimethyl-propyl}-2-methylamino-propionamide] | < 100
